Legend:
[1] = Pharmacokinetics and tissue distribution (lung, plasma, heart, kidney) of co-solvent formulations, intratracheal bolus aerosol; type: in vivo, Sprague-Dawley rats; conditions: pirfenidone about 4 mg/kg IT aerosol
Method: Selected formulations were prepared for pharmacokinetic analysis following aerosol delivery to rat lung. […] Formulations prepared for this study are outlined in Table 9. […] The sample was agitated until completely dissolved. […] Filtered samples were analyzed by HPLC.

elastase = conditions: unprocessed CF sputum directly treated; cited from earlier work
[2] = primary metabolite; cited from earlier work
cancer patients = conditions: cited from earlier work
[3] = test system: relapsed/refractory multiple myeloma; conditions: cited from earlier work
[4] = test system: EGFR mutation positive patients; conditions: cited from earlier work
PI3K = conditions: cited from earlier work
mTOR = mTOR (Homo sapiens, UniProt P42345); conditions: cited from earlier work
breast cancer stem cells = conditions: mice; cited from earlier work
p110-γ and p110-δ = conditions: inhibits all four isoforms; cited from earlier work

**Q.** For `O=C(O)c1ccc(=O)n(-c2ccccc2)c1`, which “5-carboxy metabolite, lung tissue, Mean” value ([1]; 0 MIN (one value for all groups)) is on record?
**A.** 0.00 μg/gram

**Q.** And the “5-carboxy metabolite, lung tissue, Mean” value ([1]; Group 1, 0.0333 hr)?
**A.** 0.12 μg/gram

**Q.** And the “5-carboxy metabolite, lung tissue, Mean” value ([1]; Group 1, 0.0667 hr)?
**A.** 0.13 μg/gram

**Q.** What about the “5-carboxy metabolite, lung tissue, Mean” value ([1]; Group 1, 0.100 hr) of the same molecule?
**A.** 0.48 μg/gram

**Q.** And the “5-carboxy metabolite, lung tissue, Mean” value ([1]; Group 1, 0.167 hr)?
**A.** 0.49 μg/gram

**Q.** What about the “5-carboxy metabolite, lung tissue, Mean” value ([1]; Group 1, 0.333 hr) of the same molecule?
**A.** 0.96 μg/gram

**Q.** And the “5-carboxy metabolite, lung tissue, Mean” value ([1]; Group 1, 0.667 hr)?
**A.** 0.96 μg/gram

**Q.** What about the “5-carboxy metabolite, lung tissue, Mean” value ([1]; Group 1, 1 hr) of the same molecule?
**A.** 0.73 μg/gram

**Q.** What about the “5-carboxy metabolite, lung tissue, Mean” value ([1]; Group 1, 2 hr) of the same molecule?
**A.** 0.21 μg/gram

**Q.** What about the “5-carboxy metabolite, lung tissue, Mean” value ([1]; Group 1, 2.50 hr) of the same molecule?
**A.** 0.10 μg/gram

**Q.** What about the “5-carboxy metabolite, lung tissue, Mean” value ([1]; Group 1, […]) of the same molecule?
**A.** 0.48 μg/gram

**Q.** What about the “5-carboxy metabolite, lung tissue, Mean” value ([1]; Group 3, 0.0333 hr) of the same molecule?
**A.** 0.05 μg/gram

**Q.** What about the “5-carboxy metabolite, lung tissue, Mean” value ([1]; Group 3, 0.0667 hr) of the same molecule?
**A.** 0.36 μg/gram

**Q.** What about the “5-carboxy metabolite, lung tissue, Mean” value ([1]; Group 3, 0.100 hr) of the same molecule?
**A.** 0.55 μg/gram

**Q.** What about the “5-carboxy metabolite, lung tissue, Mean” value ([1]; Group 3, 0.167 hr) of the same molecule?
**A.** 0.86 μg/gram

**Q.** What about the “5-carboxy metabolite, lung tissue, Mean” value ([1]; Group 3, 0.333 hr) of the same molecule?
**A.** 1.09 μg/gram

**Q.** And the “5-carboxy metabolite, lung tissue, Mean” value ([1]; Group 3, 0.667 hr)?
**A.** 0.81 μg/gram

**Q.** And the “5-carboxy metabolite, lung tissue, Mean” value ([1]; Group 3, 1 hr)?
**A.** 0.70 μg/gram

**Q.** And the “5-carboxy metabolite, lung tissue, Mean” value ([1]; Group 3, 2 hr)?
**A.** 0.32 μg/gram

**Q.** What about the “5-carboxy metabolite, lung tissue, Mean” value ([1]; Group 3, 2.50 hr) of the same molecule?
**A.** 0.14 μg/gram

**Q.** What about the “5-carboxy metabolite, lung tissue, Mean” value ([1]; Group 3, […]) of the same molecule?
**A.** 0.52 μg/gram

**Q.** And the “5-carboxy metabolite, lung tissue, Mean” value ([1]; Group 5, 0.0333 hr)?
**A.** 0.17 μg/gram

**Q.** What about the “5-carboxy metabolite, lung tissue, Mean” value ([1]; Group 5, 0.0667 hr) of the same molecule?
**A.** 0.42 μg/gram

**Q.** What about the “5-carboxy metabolite, lung tissue, Mean” value ([1]; Group 5, 0.100 hr) of the same molecule?
**A.** 0.35 μg/gram

**Q.** And the “5-carboxy metabolite, lung tissue, Mean” value ([1]; Group 5, 0.167 hr)?
**A.** 0.53 μg/gram

**Q.** And the “5-carboxy metabolite, lung tissue, Mean” value ([1]; Group 5, 0.333 hr)?
**A.** 1.32 μg/gram

**Q.** What about the “5-carboxy metabolite, lung tissue, Mean” value ([1]; Group 5, 0.667 hr) of the same molecule?
**A.** 0.96 μg/gram

**Q.** What about the “5-carboxy metabolite, lung tissue, Mean” value ([1]; Group 5, 1 hr) of the same molecule?
**A.** 0.75 μg/gram

**Q.** What about the “5-carboxy metabolite, lung tissue, Mean” value ([1]; Group 5, 2 hr) of the same molecule?
**A.** 0.18 μg/gram

**Q.** What about the “5-carboxy metabolite, lung tissue, Mean” value ([1]; Group 5, 2.50 hr) of the same molecule?
**A.** 0.10 μg/gram

**Q.** What about the “5-carboxy metabolite, lung tissue, Mean” value ([1]; Group 5, […]) of the same molecule?
**A.** 0.45 μg/gram

**Q.** And the “5-carboxy metabolite, lung tissue, Mean” value ([1]; Group 6, 0.0333 hr)?
**A.** 0.17 μg/gram

**Q.** What about the “5-carboxy metabolite, lung tissue, Mean” value ([1]; Group 6, 0.0667 hr) of the same molecule?
**A.** 0.43 μg/gram

**Q.** What about the “5-carboxy metabolite, lung tissue, Mean” value ([1]; Group 6, 0.100 hr) of the same molecule?
**A.** 0.37 μg/gram

**Q.** What about the “5-carboxy metabolite, lung tissue, Mean” value ([1]; Group 6, 0.167 hr) of the same molecule?
**A.** 0.64 μg/gram

**Q.** And the “5-carboxy metabolite, lung tissue, Mean” value ([1]; Group 6, 0.333 hr)?
**A.** 0.94 μg/gram

**Q.** What about the “5-carboxy metabolite, lung tissue, Mean” value ([1]; Group 6, 0.667 hr) of the same molecule?
**A.** 0.92 μg/gram

**Q.** What about the “5-carboxy metabolite, lung tissue, Mean” value ([1]; Group 6, 1 hr) of the same molecule?
**A.** 0.78 μg/gram

**Q.** And the “5-carboxy metabolite, lung tissue, Mean” value ([1]; Group 6, 2 hr)?
**A.** 0.24 μg/gram

**Q.** What about the “5-carboxy metabolite, lung tissue, Mean” value ([1]; Group 6, 2.50 hr) of the same molecule?
**A.** 0.14 μg/gram

**Q.** And the “5-carboxy metabolite, lung tissue, Mean” value ([1]; Group 6, […])?
**A.** 0.43 μg/gram

**Q.** Which “increase of sol elastase activity” value (elastase) does the source give for `O=C(O)CCCC[C@@H](S)CCS` (racemic) [DHLA, dihydrolipoic acid] here?
**A.** did not increase elastase activity

**Q.** With `O=C(O)c1ccc(=O)n(-c2ccccc2)c1` [5-carboxy-pirfenidone] as the molecule, how does the “share of urinary excretion” value [2] read?
**A.** 95%

**Q.** With `N#CC1(c2ccc(NC(=O)c3cccnc3NCc3ccncc3)cc2)CCCC1` [Apatinib] as the molecule, how does the complete response (cancer patients; 65 cancer patients, Phase I/II) read?
**A.** 1.54%

**Q.** And the partial response (cancer patients; 65 cancer patients, Phase I/II)?
**A.** 12.31%

**Q.** What about the progressive disease (cancer patients; 65 cancer patients, Phase I/II) of the same molecule?
**A.** 20%

**Q.** What about the stable disease (cancer patients; 65 cancer patients, Phase I/II) of the same molecule?
**A.** 66.15%

**Q.** And the maximum tolerated dose (cancer patients; daily for 28 days)?
**A.** 850 mg/day

**Q.** What does the source list for `CC(C)C[C@H](NC(=O)[C@H](Cc1ccccc1)NC(=O)c1cnccn1)B(O)O` [Bortezomib]?
**A.** patients with peripheral neuropathy ([3]; human, in vivo): 30%; time to peak concentrations ([3]; intravenous administration): about 30 minutes

**Q.** Which response rate [4] does the source give for `C#Cc1cccc(Nc2ncnc3cc(OCCOC)c(OCCOC)cc23)c1` [Erlotinib] here?
**A.** approximately 60%

**Q.** With `Cc1c(CN2CCN(S(C)(=O)=O)CC2)sc2c(N3CCOCC3)nc(-c3cnc(N)nc3)nc12` [GNE-477] as the molecule, how does the IC50 (mTOR) read?
**A.** 21 nM

**Q.** With `CC[C@@H](C(=O)[C@@H](C)[C@@H](O)[C@H](C)[C@@H]1O[C@@H]([C@@H](CC)C(=O)O)CC[C@@H]1C)[C@H]1O[C@]2(C=C[C@@H](O)[C@]3(CC[C@@](C)([C@H]4CC[C@](O)(CC)[C@H](C)O4)O3)O2)[C@H](C)C[C@@H]1C` [Salinomycin] as the molecule, how does the “killing of breast cancer stem cells, times more effectively than paclitaxel” value (breast cancer stem cells) read?
**A.** at least 100 times

**Q.** Which “fold better potency against p110-γ and p110-δ” value (p110-γ and p110-δ) does the source give for `Nc1nc(N)c2nc(-c3cccc(O)c3)c(-c3cccc(O)c3)nc2n1` [TG100-115] here?
**A.** 5-10 fold

**Q.** For DNase, which “increase of sol elastase activity” value (elastase) is on record?
**A.** 190%

B1: reduced rhTrx: stable reduced form of recombinant human thioredoxin (protein, UniProt P10599 2-105, looked up)
Thioredoxin: VKQIESKTAFQEALDAAGDKLVVVDFSATWCGPCKMIKPFFHSLSEKYSNVIFLEVDVDDCQDVASECEVKCMPTFQFFKKGQKVGEFSGANKEKLEATINELV
modifications: reduced form
**Q.** With B1 as the molecule, how does the “increase of sol elastase activity” value (elastase) read?
**A.** 60%
